Like-named read-outs stand apart in the source and are kept apart here. Values belong to the compound of their own block, whether it stands above or below them.
How the values were obtained:
[1] = biological target: T1, human AhR (hAhR) (Homo sapiens, UniProt P35869); experiment: AhR-responsive luciferase reporter gene assay in stably transfected human HG2L6.1c1 hepatoma cells
T1 sequence (P35869 11-848): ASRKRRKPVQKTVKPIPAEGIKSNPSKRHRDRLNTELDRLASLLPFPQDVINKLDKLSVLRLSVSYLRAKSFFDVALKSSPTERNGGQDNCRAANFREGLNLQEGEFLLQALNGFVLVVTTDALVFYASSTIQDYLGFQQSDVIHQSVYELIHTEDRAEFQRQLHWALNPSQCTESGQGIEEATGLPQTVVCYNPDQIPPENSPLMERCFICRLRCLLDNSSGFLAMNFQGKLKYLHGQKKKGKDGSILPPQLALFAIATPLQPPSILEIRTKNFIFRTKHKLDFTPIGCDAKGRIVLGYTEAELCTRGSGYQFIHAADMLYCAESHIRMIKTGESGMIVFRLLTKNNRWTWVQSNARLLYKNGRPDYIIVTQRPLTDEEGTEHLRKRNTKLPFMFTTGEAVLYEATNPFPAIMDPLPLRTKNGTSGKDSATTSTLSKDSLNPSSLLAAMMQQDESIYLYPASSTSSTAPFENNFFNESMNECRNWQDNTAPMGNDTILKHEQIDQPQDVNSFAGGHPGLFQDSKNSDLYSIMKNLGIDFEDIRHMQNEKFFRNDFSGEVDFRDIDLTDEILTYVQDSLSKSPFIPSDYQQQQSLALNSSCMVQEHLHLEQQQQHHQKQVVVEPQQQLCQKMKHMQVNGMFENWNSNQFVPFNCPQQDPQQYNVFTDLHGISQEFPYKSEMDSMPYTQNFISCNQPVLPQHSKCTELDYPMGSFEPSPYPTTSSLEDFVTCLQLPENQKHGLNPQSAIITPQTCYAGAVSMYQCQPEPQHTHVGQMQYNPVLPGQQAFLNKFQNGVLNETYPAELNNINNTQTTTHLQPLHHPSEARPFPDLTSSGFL
Procedure: (§2) AhR-dependent gene transcription was determined in (A) human HG2L6.1c.1 and (B) mouse H1L6.1c.3 hepatoma cell lines that contain a stably transfected AhR-responsive luciferase reporter gene. […] Luciferase activity (Relative Light Units (RLUs)) was normalized to the maximal induction observed with TCDD in each cell line. Values represent the mean ± SD of nine independent analyses.
(§3) Recombinant mouse (H1L6.1c3) and human (HG2L6.1c1) hepatoma cells containing a stably integrated AhR-responsive luciferase reporter gene plasmid (pGudLuc6.1) were plated (750,000 cells/well) in 96-well plates and incubated at 37 °C for 24 h prior to chemical treatment. Cells were incubated with DMSO (1% (v/v)) or the indicated concentration of test chemical in DMSO for 4 h, followed by visual inspection of the cells for toxicity, washing of the cells with phosphate-buffered saline (PBS), addition of 50 µL of passive lysis buffer (Promega) and lysis of cells for 20 min at room temperature with shaking [50]. Luciferase activity in each well was measured (integrating luminescence over 10 s with a 10 s delay) in an Orion microplate luminometer (Berthold Detection Systems, Bad Wildbad, Germany) following automatic injection of Promega stabilized luciferase reagent.
(§4) Analysis of statistical significance of differences between experimental values was conducted using Two-Way ANOVA and EC50s and IC50s were calculated using nonlinear regression (three parameter) analysis in GraphPad Prism v.7 (La Jolla, CA, USA).

[2] = biological target: T2, mouse AhR (mAhR) (Mus musculus, UniProt P30561); experiment: AhR-responsive luciferase reporter gene assay in stably transfected mouse H1L6.1c3 hepatoma cells; format: cell-based
T2 sequence (P30561 10-805): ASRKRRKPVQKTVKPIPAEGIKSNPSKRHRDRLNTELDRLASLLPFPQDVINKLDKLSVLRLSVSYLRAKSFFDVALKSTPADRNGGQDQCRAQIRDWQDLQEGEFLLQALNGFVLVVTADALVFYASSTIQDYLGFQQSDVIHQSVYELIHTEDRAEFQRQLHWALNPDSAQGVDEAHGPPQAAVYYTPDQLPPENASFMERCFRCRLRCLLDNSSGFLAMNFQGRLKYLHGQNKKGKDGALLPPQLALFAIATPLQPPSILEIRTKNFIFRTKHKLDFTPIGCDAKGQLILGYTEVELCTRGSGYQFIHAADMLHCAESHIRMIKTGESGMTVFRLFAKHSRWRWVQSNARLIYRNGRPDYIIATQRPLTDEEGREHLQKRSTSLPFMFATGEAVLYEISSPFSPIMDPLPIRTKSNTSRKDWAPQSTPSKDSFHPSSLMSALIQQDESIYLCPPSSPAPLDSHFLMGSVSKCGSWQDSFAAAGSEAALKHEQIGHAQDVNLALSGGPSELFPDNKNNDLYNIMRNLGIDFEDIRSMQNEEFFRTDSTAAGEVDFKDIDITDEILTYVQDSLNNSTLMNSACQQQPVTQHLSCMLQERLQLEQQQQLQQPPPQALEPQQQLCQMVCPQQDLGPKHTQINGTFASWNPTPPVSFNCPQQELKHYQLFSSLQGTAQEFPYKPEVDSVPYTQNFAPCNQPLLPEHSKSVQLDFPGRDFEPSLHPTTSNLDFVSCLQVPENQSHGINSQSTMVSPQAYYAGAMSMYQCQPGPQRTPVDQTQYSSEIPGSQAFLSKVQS
Procedure: as §2, §3, §4

[3] = biological target: T3, mutant mAhR H351N (Mus musculus, UniProt P30561, H351N/M324I); experiment: AhR DNA binding (gel retardation) assay, H351N mAhR; format: biochemical
T3 construct: made in house; host or cells: in vitro transcription/translation, rabbit reticulocyte lysate
Procedure: (§5) An aliquot of each incubation was mixed with [^32P]-labeled double-stranded oligonucleotide containing the AhR-ARNT DRE3 DNA binding site (a dioxin responsive element from the upstream region of the murine Cyp1a1 gene [9] and protein-DNA complexes resolved by gel retardation analysis as previously described [48, 49]. Gels were visualized using a FLA9000 Fujifilm Imager and protein-DNA complexes quantitated with Fujifilm MultiGauge software (FujiFilm Corporation, Valhalla, NY, USA).
as §4
(§6) In vitro synthesized mutant mAhRs were incubated in the presence of
(§7) 45 nM-10,000 nM) for 2 h and DNA binding analyzed by the gel retardation assay as described in
(§8) 46 Materials and Methods. Values represent the mean ± SD of nine individual replicate analyses and
(§9) 47 EC50 values determined by nonlinear regression (three-parameter) analysis and graphical depictions

[4] = tested on: T4, wild-type mAhR; experiment: Transient transfection luciferase reporter assay in COS-1 cells, wild-type mAhR; format: cell-based, mouse; conditions: COS-1 cells cotransfected with wild-type mAhR; TCDD 10 nM, IR 1 µM, 18–20 h
T4 construct: contains a full-length mAhR cDNA in which the mouse PASB LBD was replaced; expressed in transfected cells; host or cells: COS-1
Procedure: (§10) Cells were lysed, and lysates were analyzed for firefly luciferase activity. […] Luciferase activity (relative light units; RLU) was measured and corrected for background (DMSO) and normalized to mAhR TCDD levels. Values represent the mean ± SD of nine individual replicate analyses.
(§11) COS-1 cells were plated at a density of 75,000 cells/well and allowed to attach overnight in a 24-well plate. Cells were transiently transfected (per well) with the following amounts per well: 2 µL Lipofectamine 2000 (Invitrogen, Carlsbad, CA, USA), 20 ng wild-type (mβAhR/pcDNA3) or mutant AhR expression plasmids (in pcDNA3.1), 20 ng of mβARNT/pcDNA3 or pcDNA3.1(+) and 200 ng pGudLuc6.1 [17].

[5] = biological target: T5, mAhR (Mus musculus, UniProt P30561, M324I); experiment: biochemical; design: made in house; host or cells: in vitro transcription/translation, rabbit reticulocyte lysate (Promega TNT)
Procedure: (§12) (A) The amount of inducible protein-DNA complex at each chemical concentration was quantitated and values normalized to the amount of complex formed with a maximal activating concentration of TCDD (20 nM). […] Values represent the mean ± SD of nine individual replicate analyses.
as §5, §4

[6] = biological target: T6, mutant mAhR T343I (Mus musculus, UniProt P30561, M324I/T343I); experiment: AhR DNA binding (gel retardation) assay, T343I mAhR; format: biochemical
T6 construct: made in house; host or cells: in vitro transcription/translation, rabbit reticulocyte lysate
Procedure: as §5, §4

[7] = biological target: hAhR (Homo sapiens, UniProt P35869); experiment: biochemical; design: only occur within the full length hAhR and not in the mAhR-hAhRLBD chimera; made in house; host or cells: in vitro transcription/translation, rabbit reticulocyte lysate
Procedure: as §12, §5, §4

[8] = tested on: mAhR A375V; conditions: A375V versus high-affinity mAhR ref 27, 28; cited from earlier work
[9] = tested on: mAhR A375V; conditions: A375V versus high-affinity mAhR ref 27, 28; cited from earlier work; remark: listed apart in the source
[10] = biological target: T7, mutant mAhR A349T (Mus musculus, UniProt P30561, A349T/M324I); experiment: biochemical; design: made in house; host or cells: in vitro transcription/translation, rabbit reticulocyte lysate
Procedure: as §5, §4

[11] = biological target: T8, mutant mAhR Q299R (Mus musculus, UniProt P30561, M324I/Q299R); experiment: AhR DNA binding (gel retardation) assay, Q299R mAhR; format: biochemical
T8 construct: made in house; host or cells: in vitro transcription/translation, rabbit reticulocyte lysate
Procedure: as §5, §4

[12] = biological target: T9, mutant mAhR V307A (Mus musculus, UniProt P30561, M324I/V307A); experiment: AhR DNA binding (gel retardation) assay, V307A mAhR; format: biochemical
T9 construct: made in house; host or cells: in vitro transcription/translation, rabbit reticulocyte lysate
Procedure: as §5, §4

[13] = biological target: T10, mutant hAhR V381A (Homo sapiens, UniProt P35869, V381A); experiment: AhR DNA binding (gel retardation) assay, V381A hAhR; format: biochemical
T10 construct: made in house; host or cells: in vitro transcription/translation, rabbit reticulocyte lysate
Procedure: as §5, §4, §6, §7, §8, §9

[14] = biological target: T11, mutant mAhR S352N (Mus musculus, UniProt P30561, M324I/S352N); experiment: AhR DNA binding (gel retardation) assay, S352N mAhR; format: biochemical
T11 construct: made in house; host or cells: in vitro transcription/translation, rabbit reticulocyte lysate
Procedure: as §5, §4, §6, §7, §8, §9

[15] = biological target: T12, mutant mAhR R355T (Mus musculus, UniProt P30561, M324I/R355T); experiment: AhR DNA binding (gel retardation) assay, R355T mAhR; format: biochemical
T12 construct: made in house; host or cells: in vitro transcription/translation, rabbit reticulocyte lysate
Procedure: as §5, §4, §6, §7, §8, §9

[16] = biological target: T13, mutant hAhR Y332H (Homo sapiens, UniProt P35869, Y332H); experiment: AhR DNA binding (gel retardation) assay, Y332H hAhR; format: biochemical
T13 construct: made in house; host or cells: in vitro transcription/translation, rabbit reticulocyte lysate
Procedure: as §5, §4, §6, §7, §8, §9

[17] = biological target: T14, mutant mAhR I301V (Mus musculus, UniProt P30561, I301V/M324I); experiment: AhR DNA binding (gel retardation) assay, I301V mAhR; format: biochemical
T14 construct: made in house; host or cells: in vitro transcription/translation, rabbit reticulocyte lysate
Procedure: as §5, §4

[18] = tested on: T15, mutant A349T mAhR; experiment: Transient transfection luciferase reporter assay in COS-1 cells, A349T mAhR; format: cell-based, mouse; conditions: COS-1 cells cotransfected with A349T mAhR; TCDD 10 nM, IR 1 µM, 18–20 h
T15 construct: contains a full-length mAhR cDNA in which the mouse PASB LBD was replaced; expressed in transfected cells; host or cells: COS-1
Procedure: as §10, §11

[19] = biological target: T16, mutant mAhR A375V (Mus musculus, UniProt P30561, A375V/M324I); experiment: biochemical
T16 construct: made in house; host or cells: in vitro transcription/translation, rabbit reticulocyte lysate
Procedure: as §5, §4

[20] = biological target: T17, mutant hAhR T355A (Homo sapiens, UniProt P35869, T355A); experiment: AhR DNA binding (gel retardation) assay, T355A hAhR; format: biochemical
T17 construct: made in house; host or cells: in vitro transcription/translation, rabbit reticulocyte lysate
Procedure: as §5, §4, §6, §7, §8, §9

[21] = biological target: T18, mutant mAhR I324M (Mus musculus, UniProt P30561); experiment: AhR DNA binding (gel retardation) assay, I324M mAhR; format: biochemical
T18 construct: made in house; host or cells: in vitro transcription/translation, rabbit reticulocyte lysate
Procedure: as §5, §4

[22] = biological target: T19, mutant mAhR L300I (Mus musculus, UniProt P30561, L300I/M324I); experiment: AhR DNA binding (gel retardation) assay, L300I mAhR; format: biochemical
T19 construct: made in house; host or cells: in vitro transcription/translation, rabbit reticulocyte lysate
Procedure: as §5, §4

[23] = biological target: T20, mutant mAhR H326Y (Mus musculus, UniProt P30561, H326Y/M324I); experiment: AhR DNA binding (gel retardation) assay, H326Y mAhR; format: biochemical
T20 construct: made in house; host or cells: in vitro transcription/translation, rabbit reticulocyte lysate
Procedure: as §5, §4

[24] = biological target: T5, mAhR; design: host or cells: rabbit reticulocyte lysate, coupled transcription/translation; conditions: in vitro synthesized AhRs, specific binding
Procedure: (§1) [^3H]TCDD specific binding was determined by subtracting the amount of [^3H]TCDD bound to unprogrammed lysate (nonspecific binding) from the total amount of [^3H]TCDD binding to lysate containing in vitro expressed AhR.
Target sequence in this assay (P30561 10-805 M324I limits assumed): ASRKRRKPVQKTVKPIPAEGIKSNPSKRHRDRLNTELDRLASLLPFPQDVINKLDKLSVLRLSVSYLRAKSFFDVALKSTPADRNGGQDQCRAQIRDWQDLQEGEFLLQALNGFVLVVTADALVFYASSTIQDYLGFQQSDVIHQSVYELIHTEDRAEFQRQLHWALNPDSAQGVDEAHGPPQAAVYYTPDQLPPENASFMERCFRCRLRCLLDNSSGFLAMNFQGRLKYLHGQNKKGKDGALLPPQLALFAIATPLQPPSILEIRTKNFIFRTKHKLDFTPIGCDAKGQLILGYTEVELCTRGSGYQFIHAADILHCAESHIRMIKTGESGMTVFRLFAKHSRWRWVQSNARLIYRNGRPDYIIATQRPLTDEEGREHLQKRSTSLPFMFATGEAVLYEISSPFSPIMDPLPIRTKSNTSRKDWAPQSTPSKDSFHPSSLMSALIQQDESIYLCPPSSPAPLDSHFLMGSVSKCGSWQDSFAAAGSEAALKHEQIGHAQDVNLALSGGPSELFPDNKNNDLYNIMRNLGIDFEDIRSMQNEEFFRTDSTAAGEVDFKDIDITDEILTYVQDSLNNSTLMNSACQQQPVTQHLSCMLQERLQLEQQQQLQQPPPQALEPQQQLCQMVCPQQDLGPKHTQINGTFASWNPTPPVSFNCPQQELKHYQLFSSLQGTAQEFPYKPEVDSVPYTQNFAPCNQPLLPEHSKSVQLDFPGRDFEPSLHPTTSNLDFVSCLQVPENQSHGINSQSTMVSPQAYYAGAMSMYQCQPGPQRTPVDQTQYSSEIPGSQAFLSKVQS

[25] = biological target: T7, mutant mAhR A349T; design: host or cells: rabbit reticulocyte lysate, coupled transcription/translation; conditions: specific binding
Procedure: as §1
Target sequence in this assay (P30561 10-805 M324I/A349T limits assumed): as the sequence (P30561 10-805 M324I limits assumed) above, with A340T counted along it

[26] = mouse H1L6.1c3 hepatoma cells, 4 h, mean ± SD of nine analyses, read-out: EC50 to stimulate luciferase reporter gene expression, Mouse

T12 sequence (P30561 10-805 M324I/R355T limits assumed): as the sequence (P30561 10-805 M324I limits assumed) above, with R346T counted along it
T12 sequence (P53762 whole entry partner): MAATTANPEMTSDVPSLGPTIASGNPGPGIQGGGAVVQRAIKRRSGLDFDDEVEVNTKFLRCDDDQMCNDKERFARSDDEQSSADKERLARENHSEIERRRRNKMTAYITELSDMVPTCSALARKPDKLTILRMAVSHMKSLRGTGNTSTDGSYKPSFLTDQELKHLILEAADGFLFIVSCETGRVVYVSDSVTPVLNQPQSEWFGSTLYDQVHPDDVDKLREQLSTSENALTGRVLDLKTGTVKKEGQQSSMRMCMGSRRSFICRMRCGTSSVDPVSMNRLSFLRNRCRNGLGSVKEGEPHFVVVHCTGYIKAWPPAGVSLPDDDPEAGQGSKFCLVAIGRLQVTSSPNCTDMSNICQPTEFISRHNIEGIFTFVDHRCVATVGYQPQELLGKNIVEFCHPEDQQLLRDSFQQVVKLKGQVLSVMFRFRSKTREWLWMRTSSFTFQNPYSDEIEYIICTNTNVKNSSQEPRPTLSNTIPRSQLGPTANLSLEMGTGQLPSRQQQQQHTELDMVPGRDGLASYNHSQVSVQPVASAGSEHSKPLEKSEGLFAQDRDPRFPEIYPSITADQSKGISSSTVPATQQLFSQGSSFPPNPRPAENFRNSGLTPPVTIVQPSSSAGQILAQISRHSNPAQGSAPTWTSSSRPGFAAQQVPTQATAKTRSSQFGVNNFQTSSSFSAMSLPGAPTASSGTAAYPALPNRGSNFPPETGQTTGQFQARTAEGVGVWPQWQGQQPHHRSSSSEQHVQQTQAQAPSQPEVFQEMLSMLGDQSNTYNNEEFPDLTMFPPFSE
T17 sequence (P35869 11-848 T355A): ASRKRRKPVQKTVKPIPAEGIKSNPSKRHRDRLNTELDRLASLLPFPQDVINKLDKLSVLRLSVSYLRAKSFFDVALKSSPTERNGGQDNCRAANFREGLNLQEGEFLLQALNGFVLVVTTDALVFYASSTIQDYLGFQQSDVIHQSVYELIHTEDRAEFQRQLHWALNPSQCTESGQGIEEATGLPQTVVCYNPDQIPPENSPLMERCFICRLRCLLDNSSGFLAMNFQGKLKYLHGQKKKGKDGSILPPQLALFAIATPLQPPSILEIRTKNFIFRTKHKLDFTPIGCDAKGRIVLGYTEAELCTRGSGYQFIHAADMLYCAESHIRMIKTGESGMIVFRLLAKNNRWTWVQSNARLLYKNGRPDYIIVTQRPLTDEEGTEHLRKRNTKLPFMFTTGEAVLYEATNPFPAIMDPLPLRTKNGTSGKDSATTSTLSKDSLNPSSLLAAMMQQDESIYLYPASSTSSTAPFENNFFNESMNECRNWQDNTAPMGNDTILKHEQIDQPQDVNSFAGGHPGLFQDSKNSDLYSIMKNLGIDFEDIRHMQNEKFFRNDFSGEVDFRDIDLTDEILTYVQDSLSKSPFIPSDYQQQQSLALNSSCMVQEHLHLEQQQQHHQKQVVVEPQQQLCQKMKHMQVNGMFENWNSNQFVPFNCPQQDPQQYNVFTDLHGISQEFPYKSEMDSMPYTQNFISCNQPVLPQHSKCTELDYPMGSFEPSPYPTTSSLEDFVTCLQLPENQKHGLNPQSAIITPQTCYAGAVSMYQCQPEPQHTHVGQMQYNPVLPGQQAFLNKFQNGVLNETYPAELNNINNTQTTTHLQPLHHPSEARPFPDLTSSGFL
T17 sequence (P27540 whole entry partner): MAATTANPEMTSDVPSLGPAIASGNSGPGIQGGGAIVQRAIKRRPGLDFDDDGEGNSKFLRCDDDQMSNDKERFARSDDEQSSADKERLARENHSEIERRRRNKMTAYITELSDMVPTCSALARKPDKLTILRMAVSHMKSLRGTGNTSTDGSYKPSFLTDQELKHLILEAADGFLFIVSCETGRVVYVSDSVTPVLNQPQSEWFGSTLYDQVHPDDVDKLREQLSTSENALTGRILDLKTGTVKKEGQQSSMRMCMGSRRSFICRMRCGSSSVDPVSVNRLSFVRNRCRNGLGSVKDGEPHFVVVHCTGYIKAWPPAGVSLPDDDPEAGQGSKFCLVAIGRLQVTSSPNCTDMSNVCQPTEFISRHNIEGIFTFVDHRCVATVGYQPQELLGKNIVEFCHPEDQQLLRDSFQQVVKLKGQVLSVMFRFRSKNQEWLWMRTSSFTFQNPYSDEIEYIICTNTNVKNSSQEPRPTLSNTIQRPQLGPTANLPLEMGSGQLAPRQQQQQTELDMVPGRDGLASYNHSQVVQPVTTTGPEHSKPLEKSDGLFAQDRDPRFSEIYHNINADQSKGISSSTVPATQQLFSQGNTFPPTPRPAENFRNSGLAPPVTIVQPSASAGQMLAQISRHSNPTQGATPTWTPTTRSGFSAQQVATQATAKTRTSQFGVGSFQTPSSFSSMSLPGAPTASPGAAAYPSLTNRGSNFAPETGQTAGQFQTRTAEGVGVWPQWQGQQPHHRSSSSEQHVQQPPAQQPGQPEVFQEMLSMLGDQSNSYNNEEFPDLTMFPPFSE
T8 sequence (P30561 10-805 Q299R/M324I limits assumed): as the sequence (P30561 10-805 M324I limits assumed) above, with Q290R counted along it
T8 sequence (P53762 whole entry partner): as the sequence (P53762 whole entry partner) above
T16 sequence (P30561 10-805 M324I/A375V limits assumed): as the sequence (P30561 10-805 M324I limits assumed) above, with A366V counted along it
T16 sequence (P53762 whole entry partner): as the sequence (P53762 whole entry partner) above

EC50 [1]: 184 ± 42.1 nM
EC50 at 4 h [2, 26]: 22.3 ± 3.53 nM
SMILES: COC(=O)c1csc(C(=O)c2c[nH]c3ccccc23)n1 [ITE, 2-(1H-Indol-3-ylcarbonyl)-4-thiazolecarboxylic acid methyl ester]

SMILES: Clc1cc2c(cc1Cl)Oc1cc(Cl)c(Cl)cc1O2 [TCDD, 2,3,7,8-tetrachlorodibenzo-p-dioxin]
EC50 [3]: 0.73 ± 0.04 nM
induction of luciferase activity, TCDD versus IR [4]: comparable to IR
EC50 [5]: 2.48 ± 0.54 nM
EC50 [1]: 0.26 ± 0.07 nM
EC50 [6]: 1.79 ± 0.12 nM
EC50 [7]: 2.46 ± 0.9 nM
lower affinity of the mAhR after mutation A375V [8]: ~ 10 fold
lower activation potency of the mAhR after mutation A375V [9]: ~ 10 fold
EC50 [10]: 3.86 ± 1.06 nM
EC50 [11]: 2.29 ± 0.12 nM
EC50 [12]: 4.25 ± 0.12 nM
EC50 at 4 h ([2]; mouse): 0.027 ± 0.01 nM
EC50 [13]: 2.99 ± 0.65 nM
EC50 [14]: 4.34 ± 0.26 nM
EC50 [15]: 0.94 ± 0.06 nM
EC50 [16]: 0.59 ± 0.6 nM
EC50 [17]: 2.09 ± 0.01 nM
maximal induction compared with wild-type mAhR [18]: significantly repressed compared to wild-type mAhR
EC50 [19]: 5.25 ± 0.56 nM
EC50 [20]: 2.32 ± 0.82 nM
EC50 [21]: 2.92 ± 0.14 nM
EC50 [22]: 1.42 ± 0.61 nM
EC50 [23]: 0.62 ± 0.52 nM

SMILES: Clc1cc2oc3cc(Cl)c(Cl)cc3c2cc1Cl [TCDF, 2,3,7,8-tetrachlorodibenzofuran]
EC50 [1]: 4.1 ± 0.79 nM
EC50 [2, 26]: 1.25 ± 0.65 nM

SMILES: Clc1cc2c(cc1Cl)Oc1cc(Cl)c(Cl)cc1O2 [[^3H]TCDD]
more [3H]TCDD bound to wild-type mAhR than to the mAhR-hAhRLBD chimera [24]: ~ 10%
[3H]TCDD binding to A349T mutant mAhR compared with wild-type mAhR [25]: not significantly different from that of the wild-type mAhR
